Source: paper PMC2989642 (The European journal of neuroscience, 2010)

Legend:
[1] = target: α3β4 receptors (in the α5β2 KO) (Mus musculus, UniProt Q8R493+Q8R4G9); test: cell-based
[2] = target: α3β2 receptors (in the α5β4 KO) (Mus musculus, UniProt Q8R4G9+Q9ERK7); test: cell-based; assay type: cell-based
Sequence of α3β2 receptors (in the α5β4 KO) (Q8R4G9 26-499): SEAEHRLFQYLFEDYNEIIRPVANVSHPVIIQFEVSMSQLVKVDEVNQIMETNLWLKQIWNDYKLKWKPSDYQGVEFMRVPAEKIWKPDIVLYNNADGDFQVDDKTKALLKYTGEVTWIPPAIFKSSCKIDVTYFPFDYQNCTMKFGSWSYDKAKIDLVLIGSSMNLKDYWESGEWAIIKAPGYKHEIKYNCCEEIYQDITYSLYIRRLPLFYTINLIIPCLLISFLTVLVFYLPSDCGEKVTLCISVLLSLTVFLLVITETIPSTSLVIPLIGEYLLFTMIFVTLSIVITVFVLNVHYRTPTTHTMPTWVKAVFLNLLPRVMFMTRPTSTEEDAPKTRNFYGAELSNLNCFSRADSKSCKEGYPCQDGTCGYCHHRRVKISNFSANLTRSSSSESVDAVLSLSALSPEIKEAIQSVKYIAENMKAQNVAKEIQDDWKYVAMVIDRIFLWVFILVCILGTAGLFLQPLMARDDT
Sequence of α3β2 receptors (in the α5β4 KO) (Q9ERK7 26-501): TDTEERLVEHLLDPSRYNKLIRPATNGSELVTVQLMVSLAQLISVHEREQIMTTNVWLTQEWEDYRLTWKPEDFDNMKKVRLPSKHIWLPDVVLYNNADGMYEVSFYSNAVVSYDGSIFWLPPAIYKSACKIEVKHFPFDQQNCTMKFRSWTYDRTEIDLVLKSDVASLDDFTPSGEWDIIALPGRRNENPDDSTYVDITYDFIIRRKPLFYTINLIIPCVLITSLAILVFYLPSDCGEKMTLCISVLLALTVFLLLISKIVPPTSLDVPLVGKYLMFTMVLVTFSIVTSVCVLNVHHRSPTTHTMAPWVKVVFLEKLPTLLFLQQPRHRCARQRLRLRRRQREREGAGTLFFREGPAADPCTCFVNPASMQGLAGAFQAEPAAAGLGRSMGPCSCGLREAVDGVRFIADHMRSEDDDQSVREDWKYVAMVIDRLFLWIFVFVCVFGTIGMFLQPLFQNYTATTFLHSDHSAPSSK

Sequence of α3β4 receptors (in the α5β2 KO) (Q8R4G9 26-499): as the sequence (Q8R4G9 26-499) above
Sequence of α3β4 receptors (in the α5β2 KO) (Q8R493 21-495): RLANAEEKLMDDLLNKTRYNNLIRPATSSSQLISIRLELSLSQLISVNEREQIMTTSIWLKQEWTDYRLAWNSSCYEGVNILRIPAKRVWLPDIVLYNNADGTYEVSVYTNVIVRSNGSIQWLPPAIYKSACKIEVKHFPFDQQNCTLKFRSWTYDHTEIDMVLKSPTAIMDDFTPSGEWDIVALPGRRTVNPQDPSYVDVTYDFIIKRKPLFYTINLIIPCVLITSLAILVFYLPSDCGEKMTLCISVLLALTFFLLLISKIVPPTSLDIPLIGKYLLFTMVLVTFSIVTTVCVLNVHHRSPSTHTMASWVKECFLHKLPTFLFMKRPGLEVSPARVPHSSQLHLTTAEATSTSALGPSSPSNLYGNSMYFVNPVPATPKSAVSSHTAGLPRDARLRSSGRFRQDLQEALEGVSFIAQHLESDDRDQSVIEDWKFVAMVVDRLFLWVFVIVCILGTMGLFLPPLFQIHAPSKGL

With α-conotoxin AuIB the “recovery of the inhibition” value [1] was “Fast and full recovery” and the “effect on currents induced by 300 μM ACh” value [2] was “did not affect”.
